Experimental data reported in publication PMC12867150, “A fungi-derived cyclic peptide enhances Th9-mediated antitumor immunity by targeting ZAP70 and SREBP1” (The Journal of Clinical Investigation, 2025).
Several values for one entry are separate records, joined by “and”; a condition that tells them apart may be missing. Equal values may be shown once.

Tests used:
endogenous CD8+ T cells = test: Flow cytometry of endogenous CD8+ T cells in spleen, LN, tumor (Figure 2F-G, S1F-I); assay type: in vivo, mouse; settings: for Frequencies of endogenous CD8⁺ T cells in LN: Supplemental Figure 1I left; for Number of endogenous CD8⁺ T cells in LN: Supplemental Figure 1I right; for CD8 gate number: representative flow plot
Description: (§1) C57BL/6 mice were subcutaneously injected with 5 × 10^5 B16-OVA melanoma cells. Five days after tumor implantation, mice received an intravenous infusion of 2 × 10^6 in vitro–differentiated Th9 cells (cultured for 5 days), which were derived from OT-II CD45.1 donor mice, accompanied by 4 × 10^5 OVA peptide–pulsed DCs via the tail vein. To enhance T cell engraftment and facilitate lymphodepletion, a single intraperitoneal injection of cyclophosphamide (200 mg/kg, Sigma, catalog C0768) was administered 1 day prior to T cell transfer. Mice were euthanized at designated time points for the collection and analysis of spleens, tumor-draining lymph nodes, and tumor tissues.
Details regarding staining panels (human and mouse), reagents (including clones and catalog numbers), acquisition settings, compensation/controls, and analysis procedures are provided in Supplemental Methods.
BioLegend, Cat. No. 422301 or Mouse TruStain FcX™, BioLegend, Cat. No. 101319) for 10 minutes at 4°C. For surface marker detection, cells were stained with fluorochrome-conjugated monoclonal antibodies in 96-well V-bottom plates and incubated on ice for 30 minutes. After staining, cells were washed twice and resuspended in FACS buffer for analysis.
Prior to intracellular cytokine staining, cells were restimulated for 4 hours with PMA (Absin, Cat. No. abs9107), ionomycin (Sigma-Aldrich, Cat. No. I0634), and brefeldin A (MedChemExpress, Cat. No. HY-16592). For intracellular cytokine staining, cells were first surface-stained as described above, then fixed and permeabilized using the BD Cytofix/Cytoperm™ kit (BD Biosciences, Cat. No. 554714) according to the manufacturer ’s protocol. Intracellular proteins were stained with directly conjugated antibodies targeting IL-9, IL-17a, IL-4, IFN-γ, TNF-α, FOXP3, p-ZAP70, Perforin, and […]
Antibodies used for mouse samples included those against IL-9 (PE, clone RM9A4, Biolegend, Cat. No. 514104), IFN-γ (PE, clone XMG1.2, Biolegend, Cat. No.
Cat. No. 103138), CD4 (APC/Cy7, clone E-AB-F1353UJ, Elabscience, Cat. No.
AF18028), CD8α (PerCP/Cy5.5, clone E-AB-F1104UJ, Elabscience, Cat. No. […]
clone E-AB-F1187UH, Elabscience, Cat. No. AF19854), TNF-α (BV421, clone MP6-XT22, Biolegend, Cat. No. 506328), FOXP3 (PE, clone FJK-16s, eBioscience, Cat. No.
Perforin (APC, clone S16009A, Biolegend, Cat. No. 154303) and Granzyme B (APC, […]
clone QA16A02, Biolegend, Cat. No. 372203). […]
(§2) Figure S1. EpA enhances immune responses. […]
I) Representative flow-cytometric plots of endogenous CD4⁺ and CD8⁺ T cells in spleens (F), LNs (G), and tumors (H); frequencies and absolute numbers of endogenous CD4⁺ (G) and CD8⁺ (I) T cells in LNs are quantified. (J and K) […]
Statistical analysis was performed using two-way ANOVA with Tukey’s post hoc test (A), one-way ANOVA with Tukey’s post hoc test (B) or two-tailed unpaired Student’s t-test (D and G–M). ns, not significant. *p < 0.05, **p < 0.01, ****p < 0.0001.
(also on this page, place not known: Mouse weight (g) CtrlEpA CtrlEpA CtrlEpA0 I CD45.1+ T cells (%) CtrlEpA CD4+ T cells (%) CtrlEpA CtrlEpA CtrlEpA FSC CD8 CD8 FSC FSC FSC BNumber of CD45.1+ T cells (×103 per mgĎ Number of CD4+ T cells (×104 per mgĎ DC (%)NK cells (%) NK cells (%) DC (%) Number of DC (×103 per mg) Number of NK cells (×105) Number of NK cells (×103 per mg) Number of DC (×105) FSC FSC FSC CD8 CtrlEpA CtrlEpA CtrlEpA CD8+ T cells (%) Number of CD8+ T cells (×104 per mgĎ nsns ns nsns ns 40 IL-6 (pg/ml)) […]

[1] = tested on: natural killer (NK) cells; test: Flow cytometry of NK cells (S1L-M); assay type: in vivo, mouse; set-up: key to Frequencies of NK in Spleen / Frequencies of NK in LN: % of cells; settings: for Frequencies of NK in LN: Supplemental Figure 1M left; for number of NK in LN: Supplemental Figure 1M right; for NK (NK1.1) gate number: representative flow plot; for Frequencies of NK in Spleen: Supplemental Figure 1L left; for number of NK in Spleen: Supplemental Figure 1L right
Description: as §1
Details regarding staining panels (human and mouse), reagents (including clones and catalog numbers), acquisition settings, compensation/controls, and analysis procedures are provided in Supplemental Methods. […]
as §2
(L and M) Representative plots, frequencies, and total numbers of natural killer (NK) cells in spleens (L) and LNs (M). Data in (A–M) are shown as mean ± SEM from n = 4 mice per group. Statistical analysis was performed using two-way ANOVA with Tukey’s post hoc test (A), one-way ANOVA with Tukey’s post hoc test (B) or two-tailed unpaired Student’s t-test (D and G–M). ns, not significant. *p < 0.05, **p < 0.01, ****p < 0.0001.
(also on this page, place not known: Mouse weight (g) CtrlEpA CtrlEpA CtrlEpA0 I CD45.1+ T cells (%) CtrlEpA CD4+ T cells (%) CtrlEpA CtrlEpA CtrlEpA FSC CD8 CD8 FSC FSC FSC BNumber of CD45.1+ T cells (×103 per mgĎ Number of CD4+ T cells (×104 per mgĎ DC (%)NK cells (%) NK cells (%) DC (%) Number of DC (×103 per mg) Number of NK cells (×105) Number of NK cells (×103 per mg) Number of DC (×105) FSC FSC FSC CD8 CtrlEpA CtrlEpA CtrlEpA CD8+ T cells (%) Number of CD8+ T cells (×104 per mgĎ nsns ns nsns ns 40 IL-6 (pg/ml))

[2] = spleens, individual mice, n = 4

Substance: anteiso-C15 Leu7 surfactin [EpA]
- Frequencies of endogenous CD8⁺ T cells in LN (endogenous CD8+ T cells; LN, replicate 1): 31.6
- Frequencies of endogenous CD8⁺ T cells in LN (endogenous CD8+ T cells; LN, replicate 2): 27.8
- Frequencies of endogenous CD8⁺ T cells in LN (endogenous CD8+ T cells; LN, replicate 3): 36.5
- Frequencies of endogenous CD8⁺ T cells in LN (endogenous CD8+ T cells; LN, replicate 4): 27.9
- Number of endogenous CD8⁺ T cells in LN (endogenous CD8+ T cells; LN, replicate 1): 49988.9
- Number of endogenous CD8⁺ T cells in LN (endogenous CD8+ T cells; LN, replicate 2): 41201.1
- Number of endogenous CD8⁺ T cells in LN (endogenous CD8+ T cells; LN, replicate 3): 21505.6
- Number of endogenous CD8⁺ T cells in LN (endogenous CD8+ T cells; LN, replicate 4): 20877.6
- CD8 gate number (endogenous CD8+ T cells; LN, Figure S1G): 36.5
- CD8 gate number (endogenous CD8+ T cells; Spleen, Figure S1F): 34.5
- CD8 gate number (endogenous CD8+ T cells; Tumor, Figure S1H): 54.0
- endogenous CD8+ T cell frequency (endogenous CD8+ T cells; lymph nodes, result in words): modest frequency increase
- endogenous CD8+ T cell total numbers (endogenous CD8+ T cells; lymph nodes, result in words): unchanged total numbers
- endogenous CD8+ T cell frequency and number (endogenous CD8+ T cells; spleens and tumors, result in words): markedly increased in both frequency and absolute number
- endogenous CD8 (%) (endogenous CD8+ T cells; [2]): 30.4% and 27.2% and 30.6% and 34.5%
- number of CD8 T cells (endogenous CD8+ T cells; [2]): 3878238 and 3825743 and 3962312 and 3201124
- endogenous CD8 T cells (%) (endogenous CD8+ T cells; tumors, individual mice, n = 4): 54% and 34.7% and 36.8% and 55.2%
- number of endogenous CD8 T cells (endogenous CD8+ T cells; tumors, individual mice, n = 4): 176 and 424 and 563 and 172
- Frequencies of NK in LN ([1]; LN, replicate 1): 1.5
- Frequencies of NK in LN ([1]; LN, replicate 2): 1.56
- Frequencies of NK in LN ([1]; LN, replicate 3): 7.14
- Frequencies of NK in LN ([1]; LN, replicate 4): 7.79
- number of NK in LN ([1]; LN, replicate 1): 2211.77
- number of NK in LN ([1]; LN, replicate 2): 2015.49
- number of NK in LN ([1]; LN, replicate 3): 5620.7
- number of NK in LN ([1]; LN, replicate 4): 5844.48
- NK (NK1.1) gate number ([1]; LN, Figure S1M): 1.56
- Frequencies of NK in Spleen ([1]; Spleen, replicate 1): 14.2
- Frequencies of NK in Spleen ([1]; Spleen, replicate 2): 14.6
- Frequencies of NK in Spleen ([1]; Spleen, replicate 3): 14.4
- Frequencies of NK in Spleen ([1]; Spleen, replicate 4): 13.7
- number of NK in Spleen ([1]; Spleen, replicate 1): 1287047
- number of NK in Spleen ([1]; Spleen, replicate 2): 1289552
- number of NK in Spleen ([1]; Spleen, replicate 3): 1303518
- number of NK in Spleen ([1]; Spleen, replicate 4): 1053933
- NK (NK1.1) gate number ([1]; Spleen, Figure S1L): 14.2
- NK cells ([1]; result in words): increased only in the spleen
